Test results taken from BindingDB's records for doi:10.1006/jmbi.2000.4032 (Cnrs, 2000).

Experiments:
[1] = molecular target: T1, Retinoic acid receptor alpha [200-419] (Homo sapiens, UniProt P10276); experiment: Retinoid Competition Binding Assay; details: pH 7.9; 4 °C
T1 construct: 200-419
T1 sequence (P10276 whole entry): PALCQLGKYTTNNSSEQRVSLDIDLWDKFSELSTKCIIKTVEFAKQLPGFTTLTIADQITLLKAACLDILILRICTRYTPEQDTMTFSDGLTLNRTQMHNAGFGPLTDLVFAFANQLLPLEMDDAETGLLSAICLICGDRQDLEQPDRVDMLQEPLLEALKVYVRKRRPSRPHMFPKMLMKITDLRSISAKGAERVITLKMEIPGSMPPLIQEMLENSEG

[2] = molecular target: T2, Retinoic acid receptor beta [200-419] (Homo sapiens, UniProt P10826); experiment: Retinoid Competition Binding Assay; details: pH 7.9; 4 °C
T2 construct: 200-419
T2 sequence (P10826 whole entry): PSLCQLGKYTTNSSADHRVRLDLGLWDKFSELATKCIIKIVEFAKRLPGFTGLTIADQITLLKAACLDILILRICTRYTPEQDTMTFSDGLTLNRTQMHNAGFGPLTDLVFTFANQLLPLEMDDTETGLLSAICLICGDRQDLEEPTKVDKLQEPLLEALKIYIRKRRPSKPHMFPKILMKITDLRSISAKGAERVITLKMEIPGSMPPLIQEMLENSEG

Kd [1]: 0.4 nM | Kd [2]: 3.5 nM
SMILES: CC1(C)CCC(C)(C)c2cc(C(=O)/C=C/c3ccc(C(=O)O)cc3)ccc21 [Ch 80]
